Reference: patent publication US12186303B2, “Feed additive for cattle comprising n-acetyl-l-tryptophan as active ingredient” (CJ CHEILJEDANG CORPORATION, priority 2018, dated 2025)

How the values were obtained:
Korean native steers = test: Hematological analysis (VetScan HM2) under cold stress conditions; assay type: in vivo, Korean native cattle; parameters: MON / GRA / RBC / HGB / HCT / MCH / WBC / LYM: unit not given here; conditions: for GRA / HCT / HGB / LYM / MCH / MON / PLT / RBC / WBC: 0.1% NALT
Source text: After grouping the animals by statistical analysis of initial body weights, the animals were bred in 1.0×1.5 m^2 individual pens during the experiment period. The feed was offered based on an amount of dry matter of daily total mixed ration (TMR) per head. After 7 days of an adaptation period for N-acetyl-L-tryptophan (NALT), a mixture of 0.1% N-acetyl-L-tryptophan (NALT) and the total mixed ration was fed to individual animals every morning at 8 a.m. for 6 weeks, and water was available ad libitum. Total amounts of L-tryptophan ingested by the control and NALT-treated group by feeding NALT were 7.37 g/day/head and 16.26 g/day/head, respectively. The experiment was performed such that the NALT-treated group ingested 8.89 g/day/head more L-tryptophan than that of the control.
Meanwhile, results of growth performance analysis (body weight and average feed intake) and genetic analysis of loin tissue were obtained by statistically comparing and analyzing significant differences between the control and the NALT-treated group, and results of hematological analysis were obtained via statistical comparison and analysis depending on NALT treatment, experiment period (days), and interaction (treatment×days). These numerical values were expressed as average values, and a significance test was performed at the 5% level using Student's t-test by using the JMP 5.0 software package (SAS Institute Inc., Cary, NC, USA).
Blood was collected from a jugular vein of each sentinel animal before offering the feed at the starting day of the experiment (week 0), the mid-point of the experiment (week 4), and the final day of the experiment (week 7) and added to a vacutainer (Becton Dickinson, Franklin Lakes, NJ, USA). Hematological analysis was conducted using a VetScan HM2 Hematology System (Abaxis, Union City, CA, USA).

[1] = tested on: genes related to fat differentiation (PPARr, CEBPa, FABP4, LPL, and SCD) and muscle differentiation (MYF6, MyoD, and MyoG) of the loin tissue; test: Real-time PCR of gene expression related to loin tissue development under heat stress conditions; assay type: in vivo, Korean native cattle
Source text: After grouping the animals by statistical analysis of initial body weights, the animals were bred in 1.0×1.5 m^2 individual pens during the experiment period. The feed was offered based on an amount of dry matter of daily total mixed ration (TMR) per head. After 7 days of an adaptation period for N-acetyl-L-tryptophan (NALT), a mixture of 0.1% N-acetyl-L-tryptophan (NALT) and the total mixed ration was fed to individual animals every morning at 8 a.m. for 6 weeks, and water was available ad libitum. Total amounts of L-tryptophan ingested by the control and the experimental group (NALT-treated group) by feeding NALT were 6.0 g/day/head and 18.2 g/day/head, respectively. The experiment was performed such that the NALT-treated group ingested 12.2 g/day/head more L-tryptophan than the control. Meanwhile, results of growth performance analysis (body weight and average feed intake) and genetic analysis of loin tissue were obtained by statistically comparing and analyzing significant differences between the control and the NALT-treated group, and results of hematological analysis were obtained via statistical comparison and analysis depending on NALT treatment, experiment period (days), and interaction (treatment×days). These numerical values were expressed as average values, and a significance test was performed at the 5% level using Student's t-test by using a JMP 5.0 software package (SAS Institute Inc., Cary, NC, USA). Samples of loin tissue of the sentinel animals were obtained on the final day of the experiment (week 10). The samples were obtained using a biopsy gun for animals (TNT Research Co., Ltd., Gyeonggi-do, Republic of Korea), added to a 2 mL tube, and incubated in liquid nitrogen gas. After extraction of RNA from each tissue sample, real-time PCR was conducted to analyze expression levels of genes related to fat differentiation (PPARr, CEBPa, FABP4, LPL, and SCD) and muscle differentiation (MYF6, MyoD, and MyoG) of the loin tissue of each animal. Total RNA was isolated using the TRIzol RNA isolation protocol, and the amount of RNA was measured using a NanoDrop 1000 (Thermo Scientific, Seoul, Republic of Korea). The RNA integrity (RIN) was estimated using an RNA Nano 6000 Assay Kit of the Agilent Bioanalyzer 2100 system (Agilent Technologies, Richardson, USA), and an obtained RNA integrity number (RIN) was 6.5±0.27. After synthesizing cDNA from mRNA, real-time PCR was conducted to measure expression levels of the genes.

[2] = 0.1% NALT, week 10, control = 1.00000

All hematological indicators except for monocytes, compared with the control (Korean native steers): No statistically significant difference
Hematological indicator values relative to normal ranges (Korean native steers): within normal ranges
GRA (Korean native steers; 0 wks): 3.01
HCT (Korean native steers; 0 wks): 35.00
HGB (Korean native steers; 0 wks): 13.60
LYM (Korean native steers; 0 wks): 5.55
MCH (Korean native steers; 0 wks): 12.83
MON (Korean native steers; 0 wks): 0.10
PLT (Korean native steers; 0 wks): 378.0
RBC (Korean native steers; 0 wks): 10.70
WBC (Korean native steers; 0 wks): 8.66
GRA (Korean native steers; 4 wks): 2.09
HCT (Korean native steers; 4 wks): 34.64
HGB (Korean native steers; 4 wks): 14.20
LYM (Korean native steers; 4 wks): 6.55
MCH (Korean native steers; 4 wks): 13.80
MON (Korean native steers; 4 wks): 0.06
PLT (Korean native steers; 4 wks): 476.8
RBC (Korean native steers; 4 wks): 10.34
WBC (Korean native steers; 4 wks): 8.70
GRA (Korean native steers; 7 wks): 3.29
HCT (Korean native steers; 7 wks): 33.88
HGB (Korean native steers; 7 wks): 13.68
LYM (Korean native steers; 7 wks): 5.98
MCH (Korean native steers; 7 wks): 13.70
MON (Korean native steers; 7 wks): 0.08
PLT (Korean native steers; 7 wks): 379.5
RBC (Korean native steers; 7 wks): 10.08
WBC (Korean native steers; 7 wks): 9.34
SMILES: CC(=O)N[C@@H](Cc1c[nH]c2ccccc12)C(=O)O [NALT, N-acetyl-L-tryptophan]
Gene expression level of SCD compared to the control [1]: tended to be higher
C/EBPα expression level in loin tissue [1, 2]: 0.8053
FABP4 expression level in loin tissue [1, 2]: 1.501
LPL expression level in loin tissue [1, 2]: 1.774
MYF6 expression level in loin tissue [1, 2]: 1.093
MyoD expression level in loin tissue [1, 2]: 1.045
MyoG expression level in loin tissue [1, 2]: 2.086
PPARγ expression level in loin tissue [1, 2]: 1.301
SCD expression level in loin tissue [1, 2]: 1.448
Expression levels of MYF6 and MyoG and of lipolysis/fat transport genes (FABP4 and LPL) in loin tissue compared to the control ([1]; p<0.05): higher
Expression of muscle differentiation-related gene (MyoD) and fat differentiation-related genes (C/EBPα and PPARγ) compared to the control ([1]; p>0.05): No statistically significant difference
